# Biological target: T1, P70S6K (Homo sapiens, UniProt P23443, T412E)
# T1 construct: purchased Millipore
# Assay: P70S6K enzyme assay
# Type: biochemical
# Conditions: P70S6K T412E mutant 3 nM, 24 μM ATP, FITC-AHA-AKRRRLSSLRA-OH substrate, 90 min at 25° C.; read-out: IC50p70S6K
# Protocol: P70S6K inhibitor compounds are diluted and plated in 96 well plates. A reaction mixture including the following components is then added to the compound plate to initiate the enzyme reaction; P70S6K (3 nM, T412E mutant, Millipore) is mixed with 24 μM ATP in an assay buffer containing 100 mM Hepes (pH 7.5), 5 mM MgCl2, 1 mM DTT, 0.015% Brij and 1 μM of the substrate peptide FITC-AHA-AKRRRLSSLRA-OH (derived from the S6 ribosomal protein sequence, FITC=fluorescein isothiocyanate, AHA=6-aminohexanoic acid). The reaction is incubated for 90 min at 25° C., before the addition of 10 mM EDTA to stop the reaction. The proportion of substrate and product (phosphorylated) peptide is analyzed on a Caliper Life Sciences Lab Chip 3000, using a pressure of −1.4 psi, and upstream and downstream voltages of −3000 and −700 respectively. Product peaks are resolved before substrate peaks on the resulting chromatograms.
# To assess the inhibitory potential of the compounds, IC50-values were determined, as shown in Chemical Synthesis section above.
# T1 sequence (P23443 whole entry T412E): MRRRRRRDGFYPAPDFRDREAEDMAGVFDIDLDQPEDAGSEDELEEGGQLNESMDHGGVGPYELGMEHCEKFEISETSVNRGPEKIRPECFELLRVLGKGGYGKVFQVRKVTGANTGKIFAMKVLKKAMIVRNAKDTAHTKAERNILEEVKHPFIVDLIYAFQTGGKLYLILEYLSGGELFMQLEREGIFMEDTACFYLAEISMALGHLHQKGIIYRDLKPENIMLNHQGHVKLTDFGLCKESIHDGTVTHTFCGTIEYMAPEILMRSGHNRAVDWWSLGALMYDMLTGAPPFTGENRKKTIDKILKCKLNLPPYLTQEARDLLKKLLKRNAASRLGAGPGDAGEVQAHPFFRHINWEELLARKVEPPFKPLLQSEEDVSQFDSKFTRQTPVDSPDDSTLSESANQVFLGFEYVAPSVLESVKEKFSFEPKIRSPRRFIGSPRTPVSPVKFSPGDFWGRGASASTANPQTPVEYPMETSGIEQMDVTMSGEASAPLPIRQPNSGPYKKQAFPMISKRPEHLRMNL
row,Structure (SMILES),IC50
1,NC(=O)c1cccc2c(N[C@@H]3CNCC[C@H]3c3cc(F)cc(F)c3)ncnc12 (racemic) [compound 123],2.3 nM
2,CCc1nc(N[C@@H]2CNCC[C@H]2c2cccc(C(F)(F)F)c2)c2cccc(C(N)=O)c2n1 (racemic) [compound 125],3.9 nM
3,COc1cccc([C@@H]2CCNC[C@H]2Nc2nc(C)nc3c(C(N)=O)cccc23)c1 (racemic) [compound 126],4.5 nM
4,Cc1nc(N[C@@H]2CNCC[C@H]2c2ccc(F)cc2)c2cccc(C(N)=O)c2n1 (racemic) [compound 132],5.4 nM
5,CCc1nc(N[C@@H]2CNCC[C@H]2c2ccc(F)cc2)c2cccc(C(N)=O)c2n1 (racemic) [compound 133],3.6 nM
6,Cc1nc(N[C@@H]2CNCC[C@H]2c2ccc(F)cc2)c2cccc(C(N)=O)c2n1 (racemic) [compound 134],4.2 nM
7,Cc1nc(N[C@@H]2CNCC[C@H]2c2ccccc2F)c2cccc(C(N)=O)c2n1 (racemic) [compound 136],210 nM
8,"Cc1nc(N[C@@H]2CNCC[C@H]2c2cccc(C(F)(F)F)c2)c2cccc(C(N)=O)c2n1 (racemic) [compound 138, 2-methyl-4-(((3R,4R)-4-(3-(trifluoromethyl)phenyl)piperidin-3-yl)amino)quinazoline-8-]",2.7 nM
9,COc1ccc([C@@H]2CCNC[C@H]2Nc2ncnc3c(C(N)=O)cccc23)cc1OC (racemic) [compound 139],18 nM
10,NC(=O)c1cccc2c(N[C@@H]3CNCC[C@H]3c3cc(F)cc(C(F)(F)F)c3)ncnc12 (racemic) [compound 140],3.1 nM
11,Cc1nc(N[C@@H]2CNCC[C@H]2c2ccc(C(F)(F)F)cc2)c2cccc(C(N)=O)c2n1 (racemic) [compound 141],2.9 nM
12,CCc1nc(N[C@@H]2CNCC[C@H]2c2ccccc2F)c2cccc(C(N)=O)c2n1 (racemic) [compound 142],450 nM
13,CCc1nc(N[C@@H]2CNCC[C@H]2c2cccc(C)c2)c2cccc(C(N)=O)c2n1 (racemic) [compound 144],5 nM
14,"Cc1cc(C)cc(C2CCNCC2Nc2ncnc3c(C(N)=O)cccc23)c1 (racemic) [compound 145, 4-((4-(3,5-dimethylphenyl)piperidin-3-yl)amino)quinazoline-8-carboxamide]",10 nM
15,"Cc1nc(NC2CNCC2c2ccc(F)cc2)c2cccc(C(N)=O)c2n1 (centres unmarked) [compound 17, 4-((4-(4-fluorophenyl)pyrrolidin-3-yl)amino)-2-methylquinazoline-8-carboxamide]",2.4 nM
16,"COc1ccc(C2CNCC2Nc2nc(C)nc3c(C(N)=O)cccc23)cc1 (centres unmarked) [compound 18, 4-((4-(4-methoxyphenyl)pyrrolidin-3-yl)amino)-2-methylquinazoline-8-carboxamide]",1.8 nM
17,"NC(=O)c1cccc2c(NC3CNCC3c3cccc(F)c3)ccnc12 (centres unmarked) [compound 21, 4-((4-(3-fluorophenyl)pyrrolidin-3-yl)amino)quinoline-8-carboxamide]",13 nM
18,"NC(=O)c1cccc2c(N[C@@H]3CNC[C@H]3c3cc(F)cc(C(F)(F)F)c3)ncnc12 [compound 46, 4-(((3S,4R)-4-(3-fluoro-5-(trifluoromethyl)phenyl)pyrrolidin-3-yl)amino)quinazoline-8-carboxamide]",2.6 nM
19,"NC(=O)c1cccc2c(N[C@H]3CNC[C@@H]3c3cc(F)cc(C(F)(F)F)c3)ncnc12 [compound 47, 4-(((3R,4S)-4-(3-fluoro-5-(trifluoromethyl)phenyl)pyrrolidin-3-yl)amino)quinazoline-8-carboxamide]",160 nM

# Next, values leading:
row,IC50,Structure (SMILES)
1,7.5 nM,CS(=O)(=O)c1ccc([C@H]2CNC[C@@H]2Nc2ncnc3c(C(N)=O)cccc23)cc1 (racemic) [compound 111]
2,1.5 nM,NC(=O)c1cccc2c(N[C@H]3CNC[C@@H]3c3cc(F)cc(Cl)c3)ncnc12 (racemic) [compound 114]
3,4.1 nM,NC(=O)c1cccc2c(N[C@H]3CNC[C@@H]3c3cccc(F)c3F)ncnc12 (racemic) [compound 116]
4,5.9 nM,"NC(=O)c1cccc2c(N[C@H]3CNC[C@@H]3c3cccc(N4CCCC4)c3)ncnc12 (racemic) [compound 117, 4-(((3R,4S)-4-(3-(pyrrolidin-1-yl)phenyl)pyrrolidin-3-yl)amino)quinazoline-8-carboxamide]"
5,15 nM,NC(=O)c1cccc2c(N[C@H]3CNC[C@@H]3c3ccc(F)c(-c4cccnc4)c3)ncnc12 (racemic) [compound 119]
6,1.4 nM,NC(=O)c1cccc2c(N[C@H]3CNC[C@@H]3c3ccc(-c4ccccc4)c(F)c3)ncnc12 (racemic) [compound 120]
7,6 nM,NC(=O)c1cccc2c(N[C@H]3CNC[C@@H]3c3ccc(-c4cccnc4)c(F)c3)ncnc12 (racemic) [compound 121]
8,22 nM,CN1CC[C@@H](c2ccccc2)[C@H](Nc2ncnc3c(C(N)=O)cccc23)C1 (racemic) [compound 124]
9,2 nM,NC(=O)c1cccc2c(N[C@@H]3CNCC[C@H]3c3ccc(C(F)(F)F)cc3)ncnc12 (racemic) [compound 127]
10,4.3 nM,COc1cccc([C@@H]2CCNC[C@H]2Nc2ncnc3c(C(N)=O)cccc23)c1 (racemic) [compound 135]
11,7.1 nM,"NC(=O)c1cc(F)cc2c(N[C@@H]3CNCC[C@H]3c3ccccc3)ncnc12 (racemic) [compound 146, 6-fluoro-4-(((3R,4R)-4-phenylpiperidin-3-yl)amino)quinazoline-8-carboxamide]"
12,22 nM,"NC(=O)c1cccc2c(N[C@@H]3CNC[C@H]3C(=O)Nc3ccccc3)ncnc12 (relative stereo) [compound 26, trans-4-(4-Phenylcarbamoyl-pyrrolidin-3-ylamino)-quinazoline-8-carboxylic acid amide]"
13,3.5 nM,"NC(=O)c1cccc2c(NC3CNCC3c3ccccc3F)ncnc12 (centres unmarked) [compound 4, 4-((4-(2-fluorophenyl)pyrrolidin-3-yl)amino)quinazoline-8-carboxamide]"
14,2.6 nM,"NC(=O)c1cccc2c(NC3CNCC3c3ccc(F)cc3)ncnc12 (centres unmarked) [compound 5, 4-((4-(4-fluorophenyl)pyrrolidin-3-yl)amino)quinazoline-8-carboxamide]"
15,2 nM,"COc1ccc(C2CNCC2Nc2ncnc3c(C(N)=O)cccc23)cc1 (centres unmarked) [compound 6, 4-((4-(4-methoxyphenyl)pyrrolidin-3-yl)amino)quinazoline-8-carboxamide]"
16,2.6 nM,"COc1cccc(C2CNCC2Nc2ncnc3c(C(N)=O)cccc23)c1 (centres unmarked) [compound 7, 4-((4-(3-methoxyphenyl)pyrrolidin-3-yl)amino)quinazoline-8-carboxamide]"
17,18 nM,"COc1ccccc1C1CNCC1Nc1ncnc2c(C(N)=O)cccc12 (centres unmarked) [compound 8, 4-((4-(2-methoxyphenyl)pyrrolidin-3-yl)amino)quinazoline-8-carboxamide]"
18,9.4 nM,"NC(=O)c1cccc2c(NC3CNCC3c3ccccc3F)ccnc12 (centres unmarked) [compound 22, 4-((4-(2-fluorophenyl)pyrrolidin-3-yl)amino)quinoline-8-carboxamide]"
19,46 nM,"COc1ccccc1C1CNCC1Nc1ccnc2c(C(N)=O)cccc12 (centres unmarked) [compound 23, 4-((4-(2-methoxyphenyl)pyrrolidin-3-yl)amino)quinoline-8-carboxamide]"
20,60 nM,"NC(=O)c1cccc2c(N[C@@H]3CNC[C@H]3c3cccc(C(F)(F)F)c3)ncnc12 [compound 49, 4-(((3S,4R)-4-(3-(trifluoromethyl)phenyl)pyrrolidin-3-yl)amino)quinazoline-8-carboxamide]"
21,3 nM,"NC(=O)c1cccc2c(N[C@H]3CNC[C@@H]3c3cccc(C(F)(F)F)c3)ncnc12 [compound 50, 4-(((3R,4S)-4-(3-(trifluoromethyl)phenyl)pyrrolidin-3-yl)amino)quinazoline-8-carboxamide]"
22,66 nM,"NC(=O)c1cccc2c(N[C@H]3CNC[C@@H]3c3ccc(C(F)(F)F)cc3)ncnc12 [compound 53, 4-(((3R,4S)-4-(4-(trifluoromethyl)phenyl)pyrrolidin-3-yl)amino)quinazoline-8-carboxamide]"
23,1.3 nM,"NC(=O)c1cccc2c(N[C@H]3CNC[C@H]3c3ccc(C(F)(F)F)cc3)ncnc12 [compound 54, 4-(((3R,4R)-4-(4-(trifluoromethyl)phenyl)pyrrolidin-3-yl)amino)quinazoline-8-carboxamide]"
24,2.1 nM,NC(=O)c1cccc2c(N[C@H]3CNC[C@@H]3c3cccc(OC(F)(F)F)c3)ncnc12 [compound 57]
25,0.98 nM,"NC(=O)c1cccc2c(N[C@H]3CNC[C@H]3c3cccc(OC(F)(F)F)c3)ncnc12 [compound 58, 4-(((3R,4R)-4-(3-(trifluoromethoxy)phenyl)pyrrolidin-3-yl)amino)quinazoline-8-carboxamide]"
26,120 nM,"NC(=O)c1cccc2c(N[C@H]3CNC[C@@H]3c3ccc(OC(F)(F)F)cc3)ncnc12 [compound 60, 4-(((3R,4S)-4-(4-(trifluoromethoxy)phenyl)pyrrolidin-3-yl)amino)quinazoline-8-carboxamide]"
27,1.5 nM,"NC(=O)c1cccc2c(N[C@@H]3CNC[C@H]3c3ccc(OC(F)(F)F)cc3)ncnc12 [compound 61, 4-(((3S,4R)-4-(4-(trifluoromethoxy)phenyl)pyrrolidin-3-yl)amino)quinazoline-8-carboxamide]"
28,1.5 nM,"COc1ccc([C@@H]2CNC[C@H]2Nc2ncnc3c(C(N)=O)cccc23)cc1F [compound 62, 4-(((3S,4R)-4-(3-fluoro-4-methoxyphenyl)pyrrolidin-3-yl)amino)quinazoline-8-carboxamide]"
